Assay results reported in US20260242874A1, “METHOD OF PREDICTING RESPONSE TO TREATMENT” (LINNANE PHARMA AB, priority 2023, published 2026).

Key:
[1] = tested on: cancer related genes in bladder tumors; assay: Gene expression analysis (RNA sequencing) of tumors; format: in vivo, human; conditions: log FC≤−0.10; individual tumors
NMIBC = assay: Overall tumor response in patients with NMIBC (clinical and molecular end points); format: in vivo, human
From the text: Selecting relevant treatment end points is especially challenging for conditions where cure is elusive. New molecular tools may offer increased resolution of the disease response, to complement clinical observation and understand the potential of new drug candidates. This study used a combination of clinical and molecular tools to define the tumor response to alpha1-oleate in patients with NMIBC. In addition to the evaluation of the change in tumor size, the tumor response was defined by the shedding of tumor cells and fragments into the urine, by the uptake of alpha1-oleate by the tumor and by evidence of tumor cell specific apoptosis. Gene expression analysis of tumor RNA further identified interesting differences between the groups defined as CR, PR and NR by visual inspection.
After diagnosis and informed consent, the subjects received intra-vesical instillations of either alpha1-oleate or placebo on six occasions during one month preceding a scheduled transurethral resection (TURB). A safety follow-up was performed 52 days after the first instillation.

bladder tumor cells = assay: Cell shedding into urine after intravesical instillation; format: in vivo, human
Method: Intravesical alpha1-oleate instillations triggered a rapid tumor response, which was quantified by comparing the pre-instillation sample in each patient to the first urine sample obtained post instillation (≤2 hours).
To quantify the shedding of cells and cell clusters into the urine, samples were obtained from each patient prior to and after each instillation of alpha1-oleate or placebo (Visit 1-Visit 6). Cell shedding was quantified by counting the total number of epithelial cells in a unit of uncentrifuged urine under light microscopy, using a hemocytometer chamber. Changes in cell shedding were quantified at each visit, by comparing cell numbers in samples obtained before and after each instillation. The cell clusters were scored based on the examination of these samples by an experienced pathologist on a range of 0-2 where 0=no clusters and 2=the highest number of clusters.

shed bladder tumor cells = assay: DNA strand breaks by TUNEL staining of shed cells; format: in vivo, human; conditions: shed cells post-instillation vs pre-instillation, all treated patients
Method: Double strand DNA breaks were quantified by TUNEL staining, comparing shed cells post alpha1-oleate instillation, to the pre-instillation samples.
DNA fragmentation was detected using the terminal deoxynucleotidyl transferase dUTP nick end-labelling (TUNEL) assay (Click-iT TUNEL Alexa Fluor 488 imaging assay kit, ThermoFisher). Tissue sections were de-paraffinized with xylene followed by serial dehydration with ethanol (100, 95, 75 and 50%). Dehydrated sections were fixed (4% PFA, 15 min), permeabilized (DNase-free Protease K solution 20 μg/mL, 15 min) and incubated with TUNEL reaction mixture containing TdT for 60 min at 37° C. After the TUNEL reaction, sections were incubated with Click-iT reaction mixture (30 min, 37° C.). Sections were counterstained with DAPI (1 μg/mL, 5 minutes), mounted in Fluoromount aqueous mounting media, and analyzed by fluorescence microscopy (Zeiss). Fluorescence intensities were quantified by ImageJ and net mean fluorescence intensity calculated after subtraction of background fluorescence.

[2] = tested on: cancer related genes in bladder tumors; assay: Gene expression analysis (RNA sequencing) of tumors; format: in vivo, human
From the text: The tumor response was characterized in greater detail by sequencing of RNA extracted from tumor tissue obtained at TURB and from biopsies obtained from adjacent tissue with a healthy appearance.
Individual tumors in patients treated with alpha1-oleate were defined as complete responders (CR), if the tumor was removed, partial responders (PR) if the tumor size was reduced, stable disease if the tumor size was unchanged (SD) or as non-responders, if the tumor size increased (Cut off=25% change in tumor size) (FIG. 1a). The effects of alpha1-oleate on gene expression were further examined for individual patients and tumors, using […], and differences were detected relative to the clinical treatment response of each tumor. By Principal component analysis (PCA FIG. 1b) the majority of responding tumors formed a cluster with a similar overall gene expression profile.
RNA was extracted from tissues stabilized in RNAlater using the AllPrep DNA/RNA/miRNA Universal Kit. Disruption was in the TissueLyser system and CK28 Precellys tubes and by homogenization in the QIAshredder homogenizer. The quantity and quality of the RNA samples were evaluated using NanoDrop and Agilent 2100 Bioanalyzer. RNA samples were prepared by Illumina TruSeq Stranded mRNA Library Prep Kit (20020594), and libraries were multiplexed and sequenced using NextSeq 500/550 High Output Kits (v2.5 2×75 Cycles) with an average of 22 million reads per sample. Raw sequencing data was demultiplexed using bcl2fastq (version 2.18) and RSEM (1.3) was used for abundance estimation using the human genome release 37/Ensemble 75. Samples were thoroughly QCed and visualized using dimensionality reduction (i.e PCA), MA-plots as well as RNA-seq intrinsic biases (such as GC bias, transcriptome complexity and alignment quality). Differential expression analysis was performed using R (version 3.4) and the packages limma and DESeq2. Fold change were calculated by comparing tumors in the treated to the placebo group. Relative expression levels were analyzed and genes with an absolute fold change >2.0 and P<0.05 were considered as differentially expressed. Heat-maps were constructed using the Gitools 2.1.1 software. Differentially expressed genes were functionally characterized using the Ingenuity Pathway Analysis version 57662101 (IPA, Qiagen) software.
In a clinical study from an ongoing randomized, placebo-controlled phase II trial in patients with non-muscle invasive bladder cancer (NMIBC), treatment with the tumor-killing peptide-lipid complex Alpha1-Hamlet, by instillations to the patients' bladders, has shown promising therapeutic effects. Tumor tissue samples of patients (obtained post-treatment at visit number 6) were analyzed.

[3] = tested on: non-muscle invasive bladder cancer tumors; assay: Tumor histopathology of biopsies; format: in vivo, human; conditions: treated tumors compared to the placebo group
From the text: The tumor response was further evaluated by histopathology. […] A complete response was confirmed by a lack of tumor tissue in the control biopsy or presence of minor residual tissue stroma without tumor cells. In the partial responders, fragmentation and cell shedding left few intact papilli and the tissue surface appeared denuded. In addition, tumor tissue surrounding the target lesion was affected in the responding patients, including satellite tumors, which had disappeared.
Tumor biopsies, collected at the time of surgery were evaluated by histopathology, using established parameters for scoring of Grade and Stage/Invasiveness. Tissue samples were analyzed by a designated study uro-pathologist. Both grading classifications (WHO 1973 and 2004/2016) were used. Biopsies from healthy tissue areas distant from the tumor were collected for comparison.

adiponectin = assay: Adiponectin-ELISA of urine samples; format: in vivo, human; conditions: treated patients vs placebo, P<0.001
Method: To investigate levels of adiponectin protein in the urine samples of patients, an Adiponectin-ELISA test (Proteintech) was performed. The signal (absorbance) values were measured at 480 nm and interpolated to concentration (pg/mL) values using a linear regression statistical analysis. […] Graph showing urine adiponectin levels in both groups, with samples taken pre Visit 1, post Visit 1, Post Visit 3 and Post Visit 6. Line show change in median urine adiponectin levels (FIG. 4). There was statistically significant positive correlation between number of cells (shed) in urine samples and measure adiponectin levels (P=0,002), using linear regression (FIG. 4). Statistical analysis was done in GraphPad Prism.

tumor cells = conditions: cited from earlier work
skin papillomas = conditions: topical application; cited from earlier work
bladder cancer cells = conditions: local instillations; cited from earlier work

alpha1-oleate: tumor-killing peptide-lipid complex of the synthetic alpha1 peptide (aa 1-39 of human alpha-lactalbumin) and oleate
number of genes strongly down-regulated in all treated tumors [1]: 297 | responders by tumor cell shedding, apoptosis and inhibition of cancer related genes (NMIBC): all patients in this study were definable as responders | cell numbers in urine post instillation (bladder tumor cells; at each visit compared to each pre-instillation sample): highly significant increase | cell shedding (bladder tumor cells; first urine sample post instillation (≤2 hours)): detected in all patients | TUNEL staining (double strand DNA breaks) (shed bladder tumor cells): marked increase | ADIPOQ gene expression FC ([2]; 8.5 mM treated patients compared to placebo treated patients, tumor tissue post-treatment at visit 6): −5353.7 | number of genes regulated (heat map analysis) ([2]; RNA from tumor tissue obtained at TURB): over 3500 | PRAME log FC ([2]; all treated tumors): ≤ −10 | PTPRT log FC ([2]; all treated tumors): ≤ −10 | EGR3 expression ([2]; in vivo): strongly downregulated | bladder cancer related genes ([2]; in vivo): strongly inhibited | tumor microenvironment pathway genes (VEGFD, TGFB2, TGFB3, FGF1, FGF5, FGF7, FGF10, IGF1) ([2]; in vivo): downregulated | ADIPOQ dependent molecules downregulated ([2]; network analysis): 66 | ADIPOQ dependent molecules strongly regulated ([2]; network analysis): 78 | ADIPOQ dependent molecules upregulated ([2]; network analysis): 12 | inhibited genes that were bladder cancer related ([2]; of the 297 inhibited genes): 31/297 | innate immune response genes ([2]; pathway analysis, cytokine storm signaling and G protein coupled receptor signaling): strongly down-regulated | tumor response by histopathology [3]: Significant changes | urine adiponectin levels (adiponectin): significantly higher

B1: BAMLET: complex made by mixing bovine alpha-lactalbumin with oleic acid (protein, UniProt P00711 20-142, looked up)
Alpha-lactalbumin: EQLTKCEVFRELKDLKGYGGVSLPEWVCTTFHTSGYDTQAIVQNNDSTEYGLFQINNKIWCKDDQNPHSSNICNISCDKFLDDDLTDDIMCVKKILDKVGINYWLAHKALCSEKLDQWLCEKL
modifications: oleic acid complex
effects on tumour cells compared with HAMLET (tumor cells; Rammer et al. (2010)): qualitatively similar effects

B2: HAMLET: human alpha-lactalbumin made lethal to tumor cells; complex of partially unfolded α-lactalbumin and oleic acid (protein, UniProt P00709 20-142, looked up)
Alpha-lactalbumin: KQFTKCELSQLLKDIDGYGGIALPELICTMFHTSGYDTQAIVENNESTEYGLFQISNKLWCKSSQVPQSRNICDISCDKFLDDDITDDIMCAKKILDIKGIDYWLAHKALCTEKLEQWLCEKL
modifications: oleic acid complex
effect on skin papillomas (skin papillomas): removed or reduced skin papillomas | tumoricidal activity in vitro (tumor cells): kills many types of tumor cells | effect on bladder cancer cells (bladder cancer cells): killed bladder cancer cells but not healthy cells in surrounding tissues | effect on tumor size (bladder cancer cells): caused a reduction in tumor size
